Results: ChEMBL document CHEMBL5291721, “A preclinical secondary pharmacology resource illuminates target-adverse drug reaction associations of marketed drugs” (Nat Commun, 2023)

Columns and labels:
Estrogen receptor = biological target: T1, Estrogen receptor (Homo sapiens, UniProt P03372)
T1 sequence (P03372 whole entry): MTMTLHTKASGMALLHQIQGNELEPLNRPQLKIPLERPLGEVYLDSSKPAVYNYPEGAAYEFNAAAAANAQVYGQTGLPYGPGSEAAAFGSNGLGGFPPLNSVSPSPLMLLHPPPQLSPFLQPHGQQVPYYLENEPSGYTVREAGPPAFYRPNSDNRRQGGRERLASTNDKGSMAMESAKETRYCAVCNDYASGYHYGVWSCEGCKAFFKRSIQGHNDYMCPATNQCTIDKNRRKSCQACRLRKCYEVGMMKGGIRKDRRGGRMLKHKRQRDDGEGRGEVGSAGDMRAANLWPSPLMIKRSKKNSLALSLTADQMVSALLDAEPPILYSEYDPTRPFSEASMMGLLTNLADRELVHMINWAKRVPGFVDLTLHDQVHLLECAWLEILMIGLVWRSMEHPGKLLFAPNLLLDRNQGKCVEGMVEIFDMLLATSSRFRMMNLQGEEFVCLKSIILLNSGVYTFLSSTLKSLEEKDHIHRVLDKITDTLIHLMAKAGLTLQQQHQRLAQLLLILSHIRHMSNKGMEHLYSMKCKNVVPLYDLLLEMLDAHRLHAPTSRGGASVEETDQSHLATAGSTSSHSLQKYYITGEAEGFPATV

Adenosine receptor A1 = biological target: T2, Adenosine receptor A1 (Homo sapiens, UniProt P30542)
T2 sequence (P30542 whole entry): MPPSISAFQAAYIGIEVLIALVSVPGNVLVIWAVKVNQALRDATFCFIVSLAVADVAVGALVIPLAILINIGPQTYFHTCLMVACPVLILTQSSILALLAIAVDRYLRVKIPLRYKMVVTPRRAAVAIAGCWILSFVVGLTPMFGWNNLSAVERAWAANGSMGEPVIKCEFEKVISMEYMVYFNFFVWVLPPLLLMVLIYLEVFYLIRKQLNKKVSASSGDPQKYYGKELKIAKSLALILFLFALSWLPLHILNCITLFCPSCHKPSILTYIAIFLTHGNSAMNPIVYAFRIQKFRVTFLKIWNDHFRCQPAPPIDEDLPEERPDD

[1] = biological target: cGMP-inhibited 3',5'-cyclic phosphodiesterase 3A (Homo sapiens, UniProt Q14432); type: functional
[2] = biological target: Sodium-dependent serotonin transporter (Homo sapiens, UniProt P31645)
[3] = biological target: T3, 5-hydroxytryptamine receptor 1A (Homo sapiens, UniProt P08908); type: functional, cell-based
T3 sequence (P08908 whole entry): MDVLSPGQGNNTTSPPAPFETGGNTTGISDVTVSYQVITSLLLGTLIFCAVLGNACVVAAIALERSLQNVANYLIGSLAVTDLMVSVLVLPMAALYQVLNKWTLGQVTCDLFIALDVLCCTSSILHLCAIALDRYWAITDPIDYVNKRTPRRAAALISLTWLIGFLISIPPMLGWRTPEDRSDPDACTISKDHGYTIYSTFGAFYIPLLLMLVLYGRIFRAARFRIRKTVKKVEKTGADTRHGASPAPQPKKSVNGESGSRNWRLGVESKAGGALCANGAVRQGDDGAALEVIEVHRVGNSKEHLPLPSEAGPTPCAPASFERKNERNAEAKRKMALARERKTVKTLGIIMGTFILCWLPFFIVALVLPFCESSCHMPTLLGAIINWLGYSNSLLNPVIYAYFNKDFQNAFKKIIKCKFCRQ

[4] = biological target: T4, Alpha-2A adrenergic receptor (Homo sapiens, UniProt P08913); type: functional, cell-based
T4 sequence (P08913 whole entry): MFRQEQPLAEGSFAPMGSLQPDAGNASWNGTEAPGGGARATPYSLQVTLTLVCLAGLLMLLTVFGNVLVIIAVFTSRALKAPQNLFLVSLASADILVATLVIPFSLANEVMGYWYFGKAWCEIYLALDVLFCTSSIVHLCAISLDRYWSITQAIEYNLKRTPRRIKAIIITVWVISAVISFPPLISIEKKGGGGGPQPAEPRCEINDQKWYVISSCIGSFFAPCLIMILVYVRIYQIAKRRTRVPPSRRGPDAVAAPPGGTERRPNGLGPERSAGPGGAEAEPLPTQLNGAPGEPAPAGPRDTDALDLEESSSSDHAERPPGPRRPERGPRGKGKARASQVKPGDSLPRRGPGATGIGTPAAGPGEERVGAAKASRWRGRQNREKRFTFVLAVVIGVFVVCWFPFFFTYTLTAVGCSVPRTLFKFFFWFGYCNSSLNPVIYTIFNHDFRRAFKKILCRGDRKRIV

[5] = biological target: 5-hydroxytryptamine receptor 2B (Homo sapiens, UniProt P41595); type: functional, cell-based
Vasopressin V2 receptor = Vasopressin V2 receptor (Homo sapiens, UniProt P30518)
Melanocortin receptor 4 = Melanocortin receptor 4 (Homo sapiens, UniProt P32245)
[6] = biological target: Beta-1 adrenergic receptor (Homo sapiens, UniProt P08588); type: functional
B2 bradykinin receptor = biological target: T5, B2 bradykinin receptor (Homo sapiens, UniProt P30411)
T5 sequence (P30411 whole entry): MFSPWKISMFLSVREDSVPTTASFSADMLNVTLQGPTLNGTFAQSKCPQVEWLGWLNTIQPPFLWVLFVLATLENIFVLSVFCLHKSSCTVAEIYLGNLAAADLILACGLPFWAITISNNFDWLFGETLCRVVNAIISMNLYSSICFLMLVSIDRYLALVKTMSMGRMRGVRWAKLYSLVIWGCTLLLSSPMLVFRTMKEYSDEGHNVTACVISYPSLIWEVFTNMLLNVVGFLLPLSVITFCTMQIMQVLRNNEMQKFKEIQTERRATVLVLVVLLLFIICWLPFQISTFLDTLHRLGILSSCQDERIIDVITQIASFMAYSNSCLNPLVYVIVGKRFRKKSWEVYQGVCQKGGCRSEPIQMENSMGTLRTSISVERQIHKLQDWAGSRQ

Histamine H2 receptor = Histamine H2 receptor (Homo sapiens, UniProt P25021)
[7] = biological target: Neurotensin receptor type 1 (Homo sapiens, UniProt P30989)
Vasopressin V1a receptor = Vasopressin V1a receptor (Homo sapiens, UniProt P37288)
Further: assay procedure not described here.

Sequence of Vasopressin V1a receptor (P37288 whole entry): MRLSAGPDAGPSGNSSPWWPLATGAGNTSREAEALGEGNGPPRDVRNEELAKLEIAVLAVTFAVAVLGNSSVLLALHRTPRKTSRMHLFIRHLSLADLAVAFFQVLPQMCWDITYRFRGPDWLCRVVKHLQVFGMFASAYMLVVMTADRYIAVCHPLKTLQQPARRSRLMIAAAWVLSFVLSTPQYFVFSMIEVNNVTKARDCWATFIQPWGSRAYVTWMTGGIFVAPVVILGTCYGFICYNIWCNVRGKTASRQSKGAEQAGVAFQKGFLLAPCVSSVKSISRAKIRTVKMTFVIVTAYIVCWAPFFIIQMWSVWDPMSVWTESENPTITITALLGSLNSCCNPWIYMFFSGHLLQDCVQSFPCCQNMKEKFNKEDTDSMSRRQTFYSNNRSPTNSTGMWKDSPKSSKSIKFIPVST
Sequence of 5-hydroxytryptamine receptor 2B (P41595 whole entry): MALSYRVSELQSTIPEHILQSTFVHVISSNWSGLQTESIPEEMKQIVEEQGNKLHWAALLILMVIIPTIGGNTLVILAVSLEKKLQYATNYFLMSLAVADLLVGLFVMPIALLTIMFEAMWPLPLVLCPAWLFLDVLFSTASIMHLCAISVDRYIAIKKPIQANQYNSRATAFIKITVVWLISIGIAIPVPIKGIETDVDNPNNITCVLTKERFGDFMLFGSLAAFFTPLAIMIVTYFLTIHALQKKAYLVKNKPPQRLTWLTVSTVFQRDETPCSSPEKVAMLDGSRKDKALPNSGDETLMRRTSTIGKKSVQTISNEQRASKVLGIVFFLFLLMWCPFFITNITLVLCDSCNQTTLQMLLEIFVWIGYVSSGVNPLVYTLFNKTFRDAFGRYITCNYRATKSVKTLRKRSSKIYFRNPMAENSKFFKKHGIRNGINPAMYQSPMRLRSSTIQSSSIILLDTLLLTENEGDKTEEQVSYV
Sequence of cGMP-inhibited 3',5'-cyclic phosphodiesterase 3A (Q14432 whole entry): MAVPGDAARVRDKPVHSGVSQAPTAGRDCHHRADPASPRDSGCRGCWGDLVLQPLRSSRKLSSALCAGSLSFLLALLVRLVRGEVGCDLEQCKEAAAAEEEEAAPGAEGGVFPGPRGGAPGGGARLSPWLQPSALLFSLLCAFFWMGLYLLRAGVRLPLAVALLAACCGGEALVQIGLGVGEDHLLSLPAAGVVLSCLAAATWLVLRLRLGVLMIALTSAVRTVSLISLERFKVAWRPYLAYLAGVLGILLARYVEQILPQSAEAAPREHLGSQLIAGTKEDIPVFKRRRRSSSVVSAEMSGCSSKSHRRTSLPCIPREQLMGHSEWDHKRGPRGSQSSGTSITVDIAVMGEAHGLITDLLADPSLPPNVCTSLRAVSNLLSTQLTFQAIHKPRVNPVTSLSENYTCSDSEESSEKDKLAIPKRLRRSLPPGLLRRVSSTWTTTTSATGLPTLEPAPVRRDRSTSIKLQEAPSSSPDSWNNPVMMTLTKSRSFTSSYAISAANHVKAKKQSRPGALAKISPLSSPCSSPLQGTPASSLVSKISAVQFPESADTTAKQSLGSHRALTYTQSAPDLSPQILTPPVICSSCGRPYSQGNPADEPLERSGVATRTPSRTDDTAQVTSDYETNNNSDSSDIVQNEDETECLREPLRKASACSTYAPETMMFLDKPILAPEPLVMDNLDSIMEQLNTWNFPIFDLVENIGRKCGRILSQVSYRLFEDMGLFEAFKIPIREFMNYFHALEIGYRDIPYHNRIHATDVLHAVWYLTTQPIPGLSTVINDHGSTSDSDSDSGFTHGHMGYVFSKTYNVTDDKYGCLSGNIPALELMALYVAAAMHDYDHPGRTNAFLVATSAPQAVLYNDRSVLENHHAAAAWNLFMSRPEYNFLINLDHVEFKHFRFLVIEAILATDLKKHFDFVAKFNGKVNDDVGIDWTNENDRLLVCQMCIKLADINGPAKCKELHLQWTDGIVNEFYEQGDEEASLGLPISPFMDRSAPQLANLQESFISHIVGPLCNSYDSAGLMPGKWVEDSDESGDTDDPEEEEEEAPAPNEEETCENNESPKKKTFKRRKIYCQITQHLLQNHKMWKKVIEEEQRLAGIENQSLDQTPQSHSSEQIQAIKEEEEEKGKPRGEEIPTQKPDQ
Sequence of Histamine H2 receptor (P25021 whole entry): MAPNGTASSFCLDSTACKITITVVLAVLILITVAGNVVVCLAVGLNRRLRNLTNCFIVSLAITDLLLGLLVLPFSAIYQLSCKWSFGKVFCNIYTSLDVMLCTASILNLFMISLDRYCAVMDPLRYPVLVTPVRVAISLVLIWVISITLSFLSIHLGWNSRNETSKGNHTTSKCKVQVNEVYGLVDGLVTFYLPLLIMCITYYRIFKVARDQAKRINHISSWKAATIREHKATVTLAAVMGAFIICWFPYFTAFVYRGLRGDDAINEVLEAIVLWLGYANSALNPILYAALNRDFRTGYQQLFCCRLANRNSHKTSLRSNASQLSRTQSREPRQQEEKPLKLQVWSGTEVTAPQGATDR
Sequence of Vasopressin V2 receptor (P30518 whole entry): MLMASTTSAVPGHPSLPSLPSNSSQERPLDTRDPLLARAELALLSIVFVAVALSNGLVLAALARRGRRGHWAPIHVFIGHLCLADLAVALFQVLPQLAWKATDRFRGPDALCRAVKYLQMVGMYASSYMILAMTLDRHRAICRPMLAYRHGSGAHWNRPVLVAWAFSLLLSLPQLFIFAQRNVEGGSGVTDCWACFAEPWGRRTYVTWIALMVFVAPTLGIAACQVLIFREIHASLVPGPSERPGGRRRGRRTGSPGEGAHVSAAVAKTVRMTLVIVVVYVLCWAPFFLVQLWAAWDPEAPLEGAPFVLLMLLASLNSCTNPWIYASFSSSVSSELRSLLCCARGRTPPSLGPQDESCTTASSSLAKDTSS
Sequence of Beta-1 adrenergic receptor (P08588 whole entry): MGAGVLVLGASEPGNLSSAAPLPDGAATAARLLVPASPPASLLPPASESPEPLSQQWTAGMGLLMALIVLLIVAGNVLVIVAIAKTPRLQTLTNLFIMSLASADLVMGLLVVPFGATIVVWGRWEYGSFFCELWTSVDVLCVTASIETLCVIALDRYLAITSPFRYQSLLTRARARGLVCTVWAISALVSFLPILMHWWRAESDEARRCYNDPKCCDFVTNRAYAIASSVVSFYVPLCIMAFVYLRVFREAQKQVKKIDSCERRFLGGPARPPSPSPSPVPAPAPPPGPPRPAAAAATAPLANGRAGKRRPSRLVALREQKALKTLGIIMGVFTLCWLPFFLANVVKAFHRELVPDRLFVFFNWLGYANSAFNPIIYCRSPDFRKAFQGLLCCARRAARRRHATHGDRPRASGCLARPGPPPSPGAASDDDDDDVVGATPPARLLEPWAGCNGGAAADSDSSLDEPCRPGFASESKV
Sequence of Neurotensin receptor type 1 (P30989 whole entry): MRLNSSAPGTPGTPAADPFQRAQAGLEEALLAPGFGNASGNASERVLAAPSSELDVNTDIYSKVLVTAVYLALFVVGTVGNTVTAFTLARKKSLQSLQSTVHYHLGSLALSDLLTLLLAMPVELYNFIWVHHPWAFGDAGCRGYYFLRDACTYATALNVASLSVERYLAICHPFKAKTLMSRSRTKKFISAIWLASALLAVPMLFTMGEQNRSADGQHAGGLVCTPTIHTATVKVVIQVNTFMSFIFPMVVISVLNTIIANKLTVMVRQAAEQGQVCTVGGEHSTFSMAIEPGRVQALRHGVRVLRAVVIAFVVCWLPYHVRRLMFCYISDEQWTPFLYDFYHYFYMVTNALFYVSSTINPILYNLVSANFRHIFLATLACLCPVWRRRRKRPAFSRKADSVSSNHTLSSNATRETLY
Sequence of Sodium-dependent serotonin transporter (P31645 whole entry): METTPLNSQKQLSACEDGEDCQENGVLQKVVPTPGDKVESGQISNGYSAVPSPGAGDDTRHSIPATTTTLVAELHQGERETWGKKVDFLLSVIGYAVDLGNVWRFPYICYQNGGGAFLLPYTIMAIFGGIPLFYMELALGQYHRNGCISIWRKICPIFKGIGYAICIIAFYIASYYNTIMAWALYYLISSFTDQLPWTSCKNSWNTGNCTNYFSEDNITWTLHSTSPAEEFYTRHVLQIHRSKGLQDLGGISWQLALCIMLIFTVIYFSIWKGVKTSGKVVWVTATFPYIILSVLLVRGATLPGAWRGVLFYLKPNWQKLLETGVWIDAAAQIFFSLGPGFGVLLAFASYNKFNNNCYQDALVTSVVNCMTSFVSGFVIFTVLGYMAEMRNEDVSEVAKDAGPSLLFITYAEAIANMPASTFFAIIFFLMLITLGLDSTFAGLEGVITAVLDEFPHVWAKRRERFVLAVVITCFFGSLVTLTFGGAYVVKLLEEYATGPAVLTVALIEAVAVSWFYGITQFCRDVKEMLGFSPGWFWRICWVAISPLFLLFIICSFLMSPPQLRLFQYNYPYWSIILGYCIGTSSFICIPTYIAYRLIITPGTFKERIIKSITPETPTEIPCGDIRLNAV
Sequence of Melanocortin receptor 4 (P32245 whole entry): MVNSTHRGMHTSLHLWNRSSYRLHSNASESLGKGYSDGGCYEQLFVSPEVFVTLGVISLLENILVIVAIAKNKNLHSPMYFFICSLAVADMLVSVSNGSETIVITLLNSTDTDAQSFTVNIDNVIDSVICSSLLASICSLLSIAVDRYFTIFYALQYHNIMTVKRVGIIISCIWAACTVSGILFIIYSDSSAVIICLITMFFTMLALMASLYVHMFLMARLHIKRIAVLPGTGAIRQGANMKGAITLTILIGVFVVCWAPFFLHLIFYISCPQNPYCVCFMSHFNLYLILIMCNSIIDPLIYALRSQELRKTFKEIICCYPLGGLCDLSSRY

Compound | AC50 (Estrogen receptor) [µM] | AC50 (Adenosine receptor A1) [µM] | AC50 [1] [µM] | AC50 [2] [µM] | AC50 [3] [µM] | AC50 [4] [µM] | AC50 [5] [µM] | AC50 (Vasopressin V2 receptor) [µM] | AC50 (Melanocortin receptor 4) [µM] | AC50 [6] [µM] | AC50 (B2 bradykinin receptor) [µM] | AC50 (Histamine H2 receptor) [µM] | AC50 [7] [µM] | AC50 (Vasopressin V1a receptor) [µM]
Nc1c(CC(=O)O)cccc1C(=O)c1ccc(Br)cc1 [BROMFENAC] | > 30 | 23.6 |  |  |  |  |  |  |  |  |  |  |  | 
CC(C)NC(=N)NC(=N)Nc1ccc(Cl)c(Cl)c1 [CHLORPROGUANIL] | > 30 | > 30 | > 30 | 5.81 | > 30 | > 30 | 12.2 |  |  |  |  |  |  | 
C[N+](C)(C)CCOP(=O)(O)OP(=O)([O-])OC[C@H]1O[C@@H](n2ccc(N)nc2=O)[C@H](O)[C@@H]1O [CITICOLINE] | > 30 | > 30 | > 30 | > 30 |  | > 30 | > 30 |  |  |  |  |  |  | 
CN[C@@H]1[C@H](O[C@H]2[C@H](O[C@H]3[C@H](O)[C@@H](O)[C@H](NC(=N)N)[C@@H](O)[C@@H]3NC(=N)N)O[C@@H](C)[C@]2(O)CO)O[C@@H](CO)[C@H](O)[C@H]1O [DIHYDROSTREPTOMYCIN] |  | > 30 |  | > 30 |  |  |  |  |  |  |  |  |  | 
CC[C@H]1OC(=O)[C@H](C)[C@@H](O[C@H]2C[C@@](C)(OC)[C@@H](O)[C@H](C)O2)[C@H](C)[C@@H](O[C@@H]2O[C@H](C)C[C@H](N(C)C)[C@H]2O)[C@](C)(O)C[C@@H](C)[C@@H]2N[C@@H](COCCOC)O[C@H]([C@H]2C)[C@]1(C)O [DIRITHROMYCIN] | > 30 | > 30 |  | > 30 |  |  |  |  |  |  |  |  |  | 
O=C(O)Cc1ccccc1Oc1ccc(Cl)cc1Cl [FENCLOFENAC] | > 30 |  | > 30 |  | > 10 | > 10 | > 10 | > 30 | > 30 | > 10 | > 30 | > 10 | > 30 | > 10
Cc1ccc(C)c(OCCCC(C)(C)C(=O)O)c1 [GEMFIBROZIL] | > 30 |  | > 30 |  | > 10 | > 10 | 4.4 | > 30 | > 30 | > 10 | > 30 | > 10 | > 30 | > 10
C#C[C@]1(O)C=C[C@H]2[C@@H]3CCC4=CC(=O)CC[C@@H]4[C@H]3CC[C@@]21CC [GESTODENE] | 1.2 | > 30 |  | 4.59 |  |  |  |  |  |  |  |  |  | 
COc1ccccc1OC1(C)OC(=O)c2ccccc2O1 (configuration not stated) [GUAIMESAL] | > 30 | > 30 |  |  |  |  |  | > 30 |  | > 30 | > 30 |  |  | > 30
C[N+](C)(CCCCCC[N+](C)(C)C1c2ccccc2-c2ccccc21)C1c2ccccc2-c2ccccc21 [HEXAFLUORENIUM] | > 30 | > 30 |  | 3.02 |  |  |  |  |  |  |  |  |  | 
COc1cc(C(C)=O)ccc1OCCCN1CCC(c2noc3cc(F)ccc23)CC1 [ILOPERIDONE] | > 30 | > 30 |  |  | 0.055 | > 30 | 1.8 |  |  | > 30 |  |  |  | > 30
CC(CN1c2ccccc2Sc2ccccc21)N(C)C (configuration not stated) [PROMETHAZINE] |  | > 30 | > 30 |  | > 10 |  | 1.4 | > 30 | 25 | > 10 | > 30 | 0.0536 | > 30 | > 10
CC(C)C[C@H](NC(=O)[C@@H](O)[C@H](N)Cc1ccccc1)C(=O)O [UBENIMEX] | > 30 | > 30 | > 30 |  | > 30 | > 30 | > 30 |  |  | > 30 |  |  |  | 
O=C1Cc2cc(CCN3CCN(c4nsc5ccccc45)CC3)c(Cl)cc2N1 [ZIPRASIDONE] | > 30 | > 30 | > 30 |  |  |  | 0.229 | > 30 | > 30 | > 10 | > 30 | 0.596 | > 30 | > 10
